Assays:
T-47D = assay: cells; assay type: cell-based; details: 48 h; for CC50: Homo sapiens, T47D, read-out: LC50; for TGI: T-47D (breast), 100% growth inhibition, SRB
Experimental: (§1) Tumor cell lines, whose 100% growth inhibition (TGI) by the compounds according to the invention is determined at various concentrations, serve as the test system. The toxicity (LC50) of the compound to these cells is also determined. On day 0, a series of microtiter plates is inoculated with the tumor cells and preincubated for 24 h. Then the compound according to the invention is added to the cells in five in each case 10-fold diluted concentration, starting from the highest soluble concentration. After incubation for 48 hours, the cells are fixed in situ, washed and dried. Then sulforhodamine B (SRB), a pink dye that binds to the fixed cells, is added and the cells are washed again. The dye that remains represents the adherent cell mass and is determined spectroscopically. The automatically acquired data are evaluated by computer and lead, for the compound according to the invention 5-fluoro-2′-deoxyuridylyl-(5′-5′)-3′-C-ethynylcytidine and 5-fluoro-2′-deoxyuridylyl-(3′-5′)-3′-C-ethynylcytidine, to the following results, the data for the 3′-5′-coupled dimer being shown in bold above the data for the 5′-5′-coupled isomer.

LOX IMVI = assay: cells; assay type: cell-based; details: 48 h; for CC50: Homo sapiens, LOX IMVI, read-out: LC50; for TGI: LOX IMVI (melanoma), 100% growth inhibition, SRB
Experimental: as §1

SF-295 = assay: cells; assay type: cell-based; details: for CC50: Homo sapiens, SF-295, 48 h, read-out: LC50; for TGI: SF-295 (central nervous system), 100% growth inhibition, 48 h, SRB
Experimental: as §1

SF-539 = assay: cells; assay type: cell-based; details: for CC50: Homo sapiens, SF-539, 48 h, read-out: LC50; for TGI: SF-539 (central nervous system), 100% growth inhibition, 48 h, SRB
Experimental: as §1

HOP-92 = assay: cells; assay type: cell-based; details: for TGI: HOP-92 (lung), 100% growth inhibition, 48 h, SRB; for CC50: Homo sapiens, HOP-92, 48 h, read-out: LC50
Experimental: as §1

SK-MEL-2 = assay: cells; assay type: cell-based; details: for LC50: Homo sapiens, SK-MEL-2, 48 h, read-out: LC50; for TGI: SK-MEL-2 (melanoma), 100% growth inhibition, 48 h, SRB
Experimental: as §1

IGROV1 = assay: cells; assay type: cell-based; details: for CC50: Homo sapiens, IGROV-1, 48 h, read-out: LC50; for TGI: IGROV1 (ovaries), 100% growth inhibition, 48 h, SRB
Experimental: as §1

DU-145 = assay: cells; assay type: cell-based; details: for TGI: DU-145 (prostate), 100% growth inhibition, 48 h, SRB; for CC50: Homo sapiens, DU-145, 48 h, read-out: LC50
Experimental: as §1

ACHN = assay: cells; assay type: cell-based; details: 48 h; for TGI: ACHN (kidneys), 100% growth inhibition, SRB; for CC50: Homo sapiens, ACHN, read-out: LC50
Experimental: as §1

NCI-H522 = assay: cells; assay type: cell-based; details: for CC50: Homo sapiens, NCI-H522, 48 h, read-out: LC50; for TGI: NCI-H522 (lung), 100% growth inhibition, 48 h, SRB
Experimental: as §1

CAK-1 = assay: cells; assay type: cell-based; details: 48 h; for CC50: read-out: LC50; for TGI: CAK-1 (kidneys), 100% growth inhibition, SRB
Experimental: as §1

EKVX = assay: cells; assay type: cell-based; details: 48 h; for TGI: EKVX (lung), 100% growth inhibition, SRB; for CC50: Homo sapiens, EKVX, read-out: LC50
Experimental: as §1

HCC-2998 = assay: cells; assay type: cell-based; details: for TGI: HCC-2998 (intestine), 100% growth inhibition, 48 h, SRB; for CC50: Homo sapiens, HCC 2998, 48 h, read-out: LC50
Experimental: as §1

BT-549 = assay: cells; assay type: cell-based; details: for TGI: BT-549 (breast), 100% growth inhibition, 48 h, SRB; for CC50: Homo sapiens, BT-549, 48 h, read-out: LC50
Experimental: as §1

SNB-75 = assay: cells; assay type: cell-based; details: for CC50: Homo sapiens, SNB-75, 48 h, read-out: LC50; for TGI: SNB-75 (central nervous system), 100% growth inhibition, 48 h, SRB
Experimental: as §1

MCF7 = assay: cells; assay type: cell-based; details: for CC50: Homo sapiens, MCF7, 48 h, read-out: LC50; for TGI: MCF7 (breast), 100% growth inhibition, 48 h, SRB
Experimental: as §1

HCT-15 = assay: cells; assay type: cell-based; details: for TGI: HCT-15 (intestine), 100% growth inhibition, 48 h, SRB; for CC50: Homo sapiens, HCT-15, 48 h, read-out: LC50
Experimental: as §1

A549/ATCC = assay: cells; assay type: cell-based; details: for TGI: A549/ATCC (lung), 100% growth inhibition, 48 h incubation, SRB; for CC50: Homo sapiens, A549, 48 h, read-out: LC50
Experimental: as §1

[1] = test system: LOX IMVI melanoma xenograft
Experimental: A cell suspension of 5×10^6 tumor cells (LOX IMVI, cell line 01/A/1) was implanted subcutaneously in female athymic nude mice (Animal Production Area, Frederick, Md.). Intraperitoneal administration of the active substance began 3 days after tumor implantation. For this, the active substance was administered dissolved in 10% DMSO/common salt solution plus Tween® 80.
Administration was carried out in each case over a four-day period and comprised a total of 5 treatments. The tests were evaluated by determining the T/C values.
For a model based on solid tumors, a T/C value of 40 must be reached to be regarded as effective.

Tumor cell lines = assay: Cytostatic action in vitro, comparison over the tumor cell lines; assay type: cell-based
Experimental: as §1

## C#CC1(O)C(COP(=O)(O)OC2C[C@H](n3cc(F)c(=O)[nH]c3=O)O[C@@H]2CO)OC(n2ccc(N)nc2=O)C1O (stereo in doubt) [Example 1, 5-fluoro-2′-deoxyuridylyl-(3′-5′)-3′-C-ethynylcytidine]
T-47D
  CC50: > 100 µM
  TGI: 26.7 µM
LOX IMVI
  CC50: 91.5 µM
  TGI: 0.348 µM
SF-295
  CC50: > 100 µM
  TGI: 1.07 µM
SF-539
  CC50: 32.2 µM
  TGI: 0.167 µM
HOP-92
  TGI: 2.18 µM
  CC50: > 100 µM
SK-MEL-2
  LC50: 69.5 µM
  TGI: 0.424 µM
IGROV1
  CC50: > 100 µM
  TGI: 12.9 µM
DU-145
  TGI: 0.44 µM
  CC50: > 100 µM
ACHN
  TGI: 1.52 µM
  CC50: > 100 µM
NCI-H522
  CC50: > 100 µM
  TGI: 1.15 µM
CAK-1
  CC50: > 100 µM
  TGI: 0.0829 µM
EKVX
  TGI: 6.37 µM
  CC50: > 100 µM
HCC-2998
  TGI: 0.109 µM
  CC50: 1.73 µM
BT-549
  TGI: 0.346 µM
  CC50: 6.39 µM
SNB-75
  CC50: 4.72 µM
  TGI: 0.882 µM
MCF7
  CC50: > 100 µM
  TGI: 0.137 µM
HCT-15
  TGI: 15.1 µM
  CC50: > 100 µM
A549/ATCC
  TGI: 29.6 µM
  CC50: > 100 µM
[1]; 11.2 mg/kg/injection intraperitoneal, 5 treatments, day 13, nude mice
  optimum T/C value: 16
[1]; 16.75 mg/kg/injection intraperitoneal, 5 treatments, day 11 after tumor implantation, nude mice
  maximum T/C value: 7
[1]; LOX IMVI xenograft, overall conclusion
  in vivo activity in the tumor model: significant in vivo activity
Tumor cell lines; in vitro, tumor cell lines of the table
  effectiveness compared with the 5′-5′-coupled duplex active substance (example 2): much more effective
Tumor cell lines; often, over the tumor cell lines
  TGI values lower compared with the 5′-5′-coupled isomer: up to 1000 times

## C#CC1(O)C(COP(=O)(O)OC[C@H]2O[C@@H](n3cc(F)c(=O)[nH]c3=O)CC2O)OC(n2ccc(N)nc2=O)C1O (stereo in doubt) [Example 2, 5-fluoro-2′-deoxyuridylyl-(5′-5′)-3′-C-ethynylcytidine]
T-47D
  CC50: > 100 µM
  TGI: >100 µM
LOX IMVI
  CC50: ≥ 100 µM
  TGI: 100 µM
SF-295
  CC50: > 100 µM
  TGI: 20.6 µM
SF-539
  CC50: > 100 µM
  TGI: 2.01 µM
HOP-92
  TGI: 21.5 µM
  CC50: > 100 µM
SK-MEL-2
  LC50: 76.4 µM
  TGI: 5.78 µM
IGROV1
  CC50: > 100 µM
  TGI: >100 µM
DU-145
  TGI: >100 µM
  CC50: > 100 µM
ACHN
  TGI: >100 µM
  CC50: > 100 µM
NCI-H522
  CC50: > 100 µM
  TGI: >100 µM
CAK-1
  CC50: > 100 µM
  TGI: >100 µM
EKVX
  TGI: >100 µM
  CC50: > 100 µM
HCC-2998
  TGI: 2.95 µM
  CC50: 57.2 µM
BT-549
  TGI: 11.6 µM
  CC50: > 100 µM
SNB-75
  CC50: > 100 µM
  TGI: >100 µM
MCF7
  CC50: > 100 µM
  TGI: >100 µM
HCT-15
  TGI: >100 µM
  CC50: > 100 µM
A549/ATCC
  TGI: >100 µM
  CC50: > 100 µM
